Experiments:
[1] = test system: RKO colon adenocarcinoma cells (RKOp27 induced); assay: Alamar Blue cell viability assay on RKOp27 cells arrested by Ponasterone A induced p27Kip1 expression (cell cycle specific mode of action); format: cell-based; conditions: Homo sapiens, cells arrested by ectopic p27Kip1 induced with 10 μM Ponasterone A, 72 hours incubation, read-out: IC50 RKO p27 induced
Procedure: To determine the cell cycle specific mode of action, subclones of RKO colon adenocarcinoma cells (RKOp27 as described by Schmidt et al. in Oncogene 19, 2423-2429; 2000) are seeded into 96 well flat bottom plates at a density of 16000 cells per well in a volume of 50 μl per well in DMEM growth medium with 10% FCS containing 10 μM Ponasterone A. 24 hours after seeding the 50 μl each of the compound dilutions in DMEM medium are added into each well of the 96-well plate. Each compound dilution is tested as quadruplicates. Wells containing untreated control cells are filled with 50 μl DMEM medium containing 1% DMSO. The cells are then incubated with the substances for 72 hours at 37° C. in a humidified atmosphere containing 5% carbon dioxide. To determine the viability of the cells, 10 μl of an Alamar Blue solution (Biosource) are added and the fluorescence is measured at an extinction of 544 nm and an emission of 590 nm. For the calculation of the cell viability the emission value from untreated cells is set as 100% viability and the emission rates of treated cells are set in relation to the values of untreated cells. Viabilities are expressed as % values. Viability is compared of proliferating cells grown in the absence of the inducer Ponasterone A, versus viability of cells arrested by the expression of ectopic p27Kip1 induced by Ponasterone A.
Representative IC50 values for anti-proliferation/cytotoxicity determined in the aforementioned assays follow from the following table A, in which the numbers of the compound correspond to the numbers of the examples.

SMILES	IC50 [1] [µM]	melting point [°C]
Cc1cc(C)cc([C@@H]2c3[nH]c4ccccc4c3C[C@H]3C(=O)N(C)C(=S)N23)c1 [Compound 5, (3aS,10R)-10-(3,5-Dimethyl-phenyl)-2-methyl-1-thioxo-1,2,3a,4,9,10-hexahydro-2,9,10a-triaza-cyclopenta[b]fluoren-3-one]	> 100	252 to 257
CN1C(=O)[C@@H]2Cc3c([nH]c4ccccc34)[C@@H](c3cc(F)cc(F)c3)N2C1=S [Compound 4, (3aS,10R)-10-(3,5-Difluoro-phenyl)-2-methyl-1-thioxo-1,2,3a,4,9,10-hexahydro-2,9,10a-triaza-cyclopenta[b]fluoren-3-one]	> 100	308 to 310
COc1cc(OC)cc([C@@H]2c3[nH]c4cc(F)ccc4c3C[C@H]3C(=O)N(C)C(=S)N23)c1 (racemic) [Compound 6, (3aSR,10RS)-10-(3,5-Dimethoxy-phenyl)-7-fluoro-2-methyl-1-thioxo-1,2,3a,4,9,10-hexahydro-2,9,10a-triaza-cyclopenta[b]fluoren-3-one]	> 100	199 to 202
COc1cc(OC)cc([C@@H]2c3[nH]c4ccccc4c3C[C@H]3C(=O)N(C)C(=S)N23)c1 [Compound 1, (3aS,10R)-10-(3,5-Dimethoxy-phenyl)-2-methyl-1-thioxo-1,2,3a,4,9,10-hexahydro-2,9,10a-triaza-cyclopenta[b]fluoren-3-one]	> 100	–
COc1cc(OC)cc([C@@H]2c3sc4ccccc4c3C[C@H]3C(=O)N(C)C(=S)N23)c1 (racemic) [Compound 2, (3aSR,10RS)-10-(3,5-Dimethoxy-phenyl)-2-methyl-1-thioxo-1,2,4,10-tetrahydro-3aH-9-thia-2,10a-diaza-cyclopenta[b]fluoren-3-one]	> 85	247 to 249
CN1C(=O)[C@@H]2Cc3c([nH]c4ccccc34)[C@@H](c3cc(Cl)cc(Cl)c3)N2C1=S [Compound 3, (3aS,10R)-10-(3,5-Dichloro-phenyl)-2-methyl-1-thioxo-1,2,3a,4,9,10-hexahydro-2,9,10a-triaza-cyclopenta[b]fluoren-3-one]	> 100	277
COc1cc(OC)cc([C@@H]2c3[nH]c4cc(C)ccc4c3C[C@H]3C(=O)N(C)C(=S)N23)c1 (racemic) [Compound 8, (3aSR,10RS)-10-(3,5-Dimethoxy-phenyl)-2,7-dimethyl-1-thioxo-1,2,3a,4,9,10-hexahydro-2,9,10a-triaza-cyclopenta[b]fluoren-3-one]	> 100	216 to 218
COc1cc(OC)cc([C@@H]2c3[nH]c4cccc(C)c4c3C[C@H]3C(=O)N(C)C(=S)N23)c1 (racemic) [Compound 7, (3aSR,10RS)-10-(3,5-Dimethoxy-phenyl)-2,5-dimethyl-1-thioxo-1,2,3a,4,9,10-hexahydro-2,9,10a-triaza-cyclopenta[b]fluoren-3-one]	> 100	279 to 291

Reference: patent US20080125452A1, “Indolopyridines,Benzofuranopyridines and Benzothienopyridines” (ALTANA PHARMA AG, priority 2005, published 2008)
